Measured values: patent US4025533A, “5-Bromo-5-nitro-2-alkylsubstituted-1,3-dioxane” (Eli Lilly and Company, priority 1976, dated 1977)
≈ marks a conversion by molar mass, not a printed value.

Experiments:
Escherichia coli [1] = assay: conventional tube dilution test (Table I); type: cell-based; settings: 48 h, antibiotic Number 3 medium, two days at 37° C., read-out: Minimum Inhibitory Concentration
Procedure: (§1) The in vitro antimicrobial activities of Compounds A, B and C, 5-bromo-2-ethyl-5-nitro-1,3-dioxane (Compound D), 5-bromo-5-nitro-2-n-propyl-1,3-dioxane (Compound E), and 5-bromo-2-isopropyl-5-nitro-1,3-dioxane (Compound F) were determined concurrently against Pseudomonas aeruginosa, Staphylococcus aureus, Escherichia coli, and Streptococcus faecalis in a conventional tube dilution test. The medium used was antibiotic Number 3 [CFR 436.102(3)] and the concentration of organisms was 10^4 organisms per ml of medium, with each tube being inoculated with 0.1 ml of inoculum. The figures shown in Table I are the lowest concentrations in mcg of active compound/ml of medium where no growth occurred in the medium after two days' incubation at 37° C.

Pseudomonas aeruginosa [2] = assay: conventional tube dilution test (Table I); type: cell-based; settings: 48 h, antibiotic Number 3 medium, two days at 37° C., read-out: Minimum Inhibitory Concentration
Procedure: as §1

Staphylococcus aureus [3] = assay: conventional tube dilution test (Table I); type: cell-based; settings: 48 h, antibiotic Number 3 medium, two days at 37° C., read-out: Minimum Inhibitory Concentration
Procedure: as §1

Streptococcus faecalis [4] = assay: conventional tube dilution test (Table I); type: cell-based; settings: Enterococcus faecalis, 48 h, antibiotic Number 3 medium, two days at 37° C., read-out: Minimum Inhibitory Concentration
Procedure: as §1

Aspergillus niger [5] = assay: agar plate system (Table II); type: cell-based; settings: antibiotic medium 22, 72 hours at 30° C., read-out: Minimum Inhibitory Concentration
Procedure: (§2) The antimicrobial activities of Compounds A, B, C, D, E and F were also determined in an agar plate system. The compounds were added to melted and cooled (50° C.) agar in twofold concentration increments from 50 mcg per ml of agar to 1.56 mcg per ml of agar. Antibiotic medium 1 [CFR 436.102(1)] was used for testing of Pseudomonas aeruginosa, Staphylococcus aureus, Escherichia coli, and Streptococcus faecalis, but antibiotic medium 22 [CFR 436.102(22)] was used for testing of Candida albicans and Aspergillus niger. Organism suspensions containing 10^6 organisms per ml were used as stock suspensions. Sterile cotton swabs were dipped in the suspensions and then streaked across the solidified agar. The figures shown in Table II were the lowest concentrations at which no growth occurred after 72 hours at 30° C. These values were interpreted as the minimum inhibitory concentration (MIC).

Candida albicans [6] = assay: agar plate system (Table II); type: cell-based; settings: antibiotic medium 22, 72 hours at 30° C., read-out: Minimum Inhibitory Concentration
Procedure: as §2

Escherichia coli [7] = assay: agar plate system (Table II); type: cell-based; settings: antibiotic medium 1, 72 hours at 30° C., read-out: Minimum Inhibitory Concentration
Procedure: as §2

Pseudomonas aeruginosa [8] = assay: agar plate system (Table II); type: cell-based; settings: antibiotic medium 1, 72 hours at 30° C., read-out: Minimum Inhibitory Concentration
Procedure: as §2

Staphylococcus aureus [9] = assay: agar plate system (Table II); type: cell-based; settings: antibiotic medium 1, 72 hours at 30° C., read-out: Minimum Inhibitory Concentration
Procedure: as §2

Streptococcus faecalis [10] = assay: agar plate system (Table II); type: cell-based; settings: Enterococcus faecalis, antibiotic medium 1, 72 hours at 30° C., read-out: Minimum Inhibitory Concentration
Procedure: as §2

[11] = chemical stability towards pH / alkali; type: physicochemical; settings: pH 5-9
Aspergillus niger [12] = assay: in vitro agar plate determination (Table VII); type: cell-based; settings: agar plates at 10, 25 and 50 mcg. per ml., 24 hours, read-out: Minimum Inhibitory Concentration
Procedure: (§3) The antimicrobial activities of […] (Compound G) were determined concurrently with 5-bromo-2-methyl-5-nitro-1,3-dioxane (Compound C) and 5-bromo-5-nitro-1,3-dioxane (Compound B) against the same six organisms shown in Table II. […] The tests were in vitro determinations utilizing agar plates containing the active compound at 10, 25 and 50 mcg. per ml. of agar. The organisms, at concentrations of 10^6 organisms per milliliter, were streaked on the solidified agar. The plates were incubated for 24 hours and the presence or absence of growth noted. The minimum inhibitory concentration (MIC) was determined as the lowest active compound concentration in the agar where no growth occurred.

Candida albicans [13] = assay: in vitro agar plate determination (Table VII); type: cell-based; settings: agar plates at 10, 25 and 50 mcg. per ml., 24 hours, read-out: Minimum Inhibitory Concentration
Procedure: as §3

Escherichia coli [14] = assay: in vitro agar plate determination (Table VII); type: cell-based; settings: agar plates at 10, 25 and 50 mcg. per ml., 24 hours, read-out: Minimum Inhibitory Concentration
Procedure: as §3

Pseudomonas aeruginosa [15] = assay: in vitro agar plate determination (Table VII); type: cell-based; settings: agar plates at 10, 25 and 50 mcg. per ml., 24 hours, read-out: Minimum Inhibitory Concentration
Procedure: as §3

Staphylococcus aureus [16] = assay: in vitro agar plate determination (Table VII); type: cell-based; settings: agar plates at 10, 25 and 50 mcg. per ml., 24 hours, read-out: Minimum Inhibitory Concentration
Procedure: as §3

Streptococcus faecalis [17] = assay: in vitro agar plate determination (Table VII); type: cell-based; settings: Enterococcus faecalis; agar plates at 10, 25 and 50 mcg. per ml., 24 hours; read-out: Minimum Inhibitory Concentration
Procedure: as §3

| Structure (SMILES) | MIC (Escherichia coli [1]) [µg/mL] | MIC (Pseudomonas aeruginosa [2]) [µg/mL] | MIC (Staphylococcus aureus [3]) [µg/mL] | MIC (Streptococcus faecalis [4]) [µg/mL] | MIC (Aspergillus niger [5]) [µg/mL] | MIC (Candida albicans [6]) [µg/mL] | MIC (Escherichia coli [7]) [µg/mL] | MIC (Pseudomonas aeruginosa [8]) [µg/mL] | MIC (Staphylococcus aureus [9]) [µg/mL] | MIC (Streptococcus faecalis [10]) [µg/mL] | chemical stability at pH [11] | MIC (Aspergillus niger [12]) [µg/mL] | MIC (Candida albicans [13]) [µg/mL] | MIC (Escherichia coli [14]) [µg/mL] | MIC (Pseudomonas aeruginosa [15]) [µg/mL] | MIC (Staphylococcus aureus [16]) [µg/mL] | MIC (Streptococcus faecalis [17]) [µg/mL] |
| --- | --- | --- | --- | --- | --- | --- | --- | --- | --- | --- | --- | --- | --- | --- | --- | --- | --- |
| CCC1OCC(Br)([N+](=O)[O-])CO1 (stereo not shown) [Compound D, 5-bromo-2-ethyl-5-nitro-1,3-dioxane] | 25 (≈ 104 µM) | 50 (≈ 208 µM) | 25 (≈ 104 µM) | 25 (≈ 104 µM) | 12.5 (≈ 52.1 µM) | 6.25 (≈ 26 µM) | 12.5 (≈ 52.1 µM) | 25 (≈ 104 µM) | 12.5 (≈ 52.1 µM) | 12.5 (≈ 52.1 µM) | chemically stable at pH's from 5-9 |  |  |  |  |  |  |
| CCCC1OCC(Br)([N+](=O)[O-])CO1 (stereo not shown) [Compound E, 5-bromo-5-nitro-2-n-propyl-1,3-dioxane] | 25 (≈ 98.4 µM) | 50 (≈ 197 µM) | 50 (≈ 197 µM) | 25 (≈ 98.4 µM) | 6.25 (≈ 24.6 µM) | 3.1 (≈ 12.2 µM) | 12.5 (≈ 49.2 µM) | 25 (≈ 98.4 µM) | 12.5 (≈ 49.2 µM) | 12.5 (≈ 49.2 µM) |  |  |  |  |  |  |  |
| CC(C)C1OCC(Br)([N+](=O)[O-])CO1 (stereo not shown) [Compound F, 5-bromo-2-isopropyl-5-nitro-1,3-dioxane] | 25 (≈ 98.4 µM) | 50 (≈ 197 µM) | 25 (≈ 98.4 µM) | 25 (≈ 98.4 µM) | 12.5 (≈ 49.2 µM) | 6.25 (≈ 24.6 µM) | 12.5 (≈ 49.2 µM) | 25 (≈ 98.4 µM) | 12.5 (≈ 49.2 µM) | 25 (≈ 98.4 µM) |  |  |  |  |  |  |  |
| CC1(C)OCC(Br)([N+](=O)[O-])CO1 [Compound G, 5-bromo-2,2-dimethyl-5-nitro-1,3-dioxane] |  |  |  |  |  |  |  |  |  |  |  | 50 (≈ 208 µM) | 25 (≈ 104 µM) | 25 (≈ 104 µM) | 50 (≈ 208 µM) | 25 (≈ 104 µM) | 25 (≈ 104 µM) |
